# How the values were obtained:
# [1] = Excipient screening (visual solubility after 24 hrs)
# A431 = test: Cell growth (SRB), A431; format: cell-based
# Procedure: (§1) In vitro functional studies. […] Cell lines examined in receptor phosphorylation ELISA were 3T3-EGFR, 3T3-EGFR/Her-2, 3T3-PDGF-bR, 3T3-IGF1R, and 3T3-IR. For analysis of DNA replication (measured as incorporation of BrdU) and cell cycle progression, 3T3-EGFR and 3T3-PDGF-bR cell lines were used. Cell growth studies were carried out on A431 (EGF-R+), BT474 (Her-2+), and C6 (PDGF-bR+) cell lines.
# (§2) After 4 days, cell density was measured by SRB staining. IC50 values were determined by regression analysis. For these experiments, cell lines whose growth is dependent on naturally-expressed RTK were examined.
# 3T3-EGFR cells = test: EGF-driven DNA replication (BrdU incorporation); format: cell-based; conditions: Mus musculus, 20 hours
# Procedure: as §1
# C6 = test: Cell growth (SRB), C6; format: cell-based
# Procedure: In vitro functional studies.
# as §2
# IGF-1R = target: T1, IGF-1R (Homo sapiens, UniProt P08069); test: IGF-1-stimulated receptor phosphorylation ELISA, 3T3-IGF1R; format: cell-based
# T1 construct: expressed in transfected cells; host or cells: NIH3T3 mouse fibroblasts, retroviral vector (3T3-IGF1R)
# From the text: (§3) Cells and Cell Culture. All tumor cell lines were obtained from the American Type Culture Collection (Rockville, Md.), unless otherwise specified. NIH3T3 mouse fibroblasts overexpressing the EGF receptor, IGF-1 receptor, insulin receptor, PDGF-b receptor, or a chimera of the EGF receptor extracellular domain fused to the Her-2 cytoplasmic domain were engineered using retroviral vectors. These cells will be referred to as 3T3-EGFR, 3T3-IGF1R, 3T3-IR, 3T3-PDGF-bR, and 3T3-EGFR/Her-2, respectively. All cell culture media and supplements were purchased from Gibco Life Technologies (Grand Island, N.Y.) unless otherwise specified. […] Cell lines were maintained under standard conditions in culture media recommended by the ATCC, unless otherwise specified. 3T3-EGFR, 3T3-PDGF-bR, and 3T3-EGFR/Her-2 cells were maintained in DMEM containing 10% calf serum (CS) and 2 mM GLN. 3T3-IGF1R and 3T3-IR cells were maintained in DMEM containing 10% FBS and 2 mM GLN. Keratinocytes were obtained from small biopsy specimens of split-thicknessskin from patients with psoriasis and from healthy control donors.
# as §1
# Receptor phosphorylation was measured by ELISA. EGF-R/Her-2 denotes a chimeric receptor consisting of the extracellular (ligand-binding) domain of EGFR, and the transmembrane and cytoplasmic domains of Her-2.
# IR = target: T2, IR (Homo sapiens, UniProt P06213); test: Insulin-stimulated receptor phosphorylation ELISA, 3T3-IR; format: cell-based
# T2 construct: expressed in transfected cells; host or cells: NIH3T3 mouse fibroblasts, retroviral vector (3T3-IR)
# From the text: as §3
# In vitro functional studies. […] For analysis of DNA replication (measured as incorporation of BrdU) and cell cycle progression, 3T3-EGFR and 3T3-PDGF-bR cell lines were used. […]
# Receptor phosphorylation was measured by ELISA. […]
# [2] = Solubility of A1 in pure solvents
# in vitro = in vitro ADME, human
# Procedure: . […] . Thus, biologically relevant concentrations of the drug penetrated the skin and reached the target tissue (epidermis) within 24 hours of application.
# . The area of the cadaver skin used was 1.77 cm^2. The calculated volume using this assumption is 17.7 μL. Molar concentration was calculated from the microgram recovery in the epidermis.
# [3] = test system: NIH 3T3 C7 cells engineered to express EGF-R (3T3-EGFR); test: 3T3 cell growth assay, EGF-R C7 cells (3T3-EGFR); format: cell-based; conditions: Mus musculus, NIH3T3, 96 h, read-out: 3T3-EGFR IC50
# Procedure: The efficacy of the above identified compounds in inhibiting or reducing EGF-R stimulated proliferation is measured by the 3T3 cell growth assay. The 3T3 growth assay was carried out as follows:
# EGF-RC7 (NIH 3T3 C7 cells engineered to express EGF-R) and NIH 3T3C7 cells (as the control) were used for this assay. NIH3T3C7 cells were seeded at 2500 cells/well, […] in 10% CS+2 mM Glutamine/DMEM, in a 96 well plate; EGF-RC7 cells were seeded at 6000 cells/well, 100 μl/well in 2% FBS+2 mM Glutamine/DMEM, in a 96 well plate. Cells were incubated at 37° C., 5% CO2 overnight to allow for cell attachment to the plate.
# A quinazoline compound was added to the cells at day 2. The compound was prepared in the appropriate growth medium (10% CS+2 mM glutamine in DMEM for NIH3T3C7 cells; 2% FBS+2 mM Glutamine in DMEM for EGF-RC7 cells) in a 96 well plate, and serially diluted. A total of 100 μl/well medium of the diluted compounds was added into the cells. The total volume of each well was 200 μl.
# After the cells were treated with the compound for 4 days, the cells were washed with PBS and fixed with 200 μl/well ice-cold […] for one hour at 0-5° C.
# Remove TCA and rinse wells 5 times with deionized water. Dry plates upside down with paper towels. Stain cells with 0.4% SRB at 100 μl/well for 10 minutes.
# Pour off SRB and rinse plate 5 times with 1% acetic acid. Dry plate completely.
# Solubilize the dye with 10 mM Tris-base at 100 μl/well for 10 minutes on a shaker.
# Read the plate at dual wavelengths at 570 nm and 630 nm on Dynatech Elisa plate reader.
# T1 sequence (P08069 741-1367 limits assumed, species assumed): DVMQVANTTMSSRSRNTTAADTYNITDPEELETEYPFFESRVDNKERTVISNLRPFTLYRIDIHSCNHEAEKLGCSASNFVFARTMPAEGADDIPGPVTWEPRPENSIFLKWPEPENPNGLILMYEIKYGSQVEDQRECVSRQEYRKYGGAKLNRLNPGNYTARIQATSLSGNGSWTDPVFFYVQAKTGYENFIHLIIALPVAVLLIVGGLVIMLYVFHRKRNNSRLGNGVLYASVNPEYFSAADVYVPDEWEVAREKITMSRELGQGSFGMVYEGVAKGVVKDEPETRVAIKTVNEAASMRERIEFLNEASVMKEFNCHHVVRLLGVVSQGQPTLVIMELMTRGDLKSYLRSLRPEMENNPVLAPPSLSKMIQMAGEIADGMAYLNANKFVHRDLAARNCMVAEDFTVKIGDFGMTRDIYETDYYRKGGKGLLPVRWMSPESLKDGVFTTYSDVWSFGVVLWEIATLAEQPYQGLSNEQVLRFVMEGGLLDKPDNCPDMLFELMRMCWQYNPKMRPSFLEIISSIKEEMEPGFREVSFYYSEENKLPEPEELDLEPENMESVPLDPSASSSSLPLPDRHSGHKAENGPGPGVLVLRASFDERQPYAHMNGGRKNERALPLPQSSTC
# T1 sequence (P08069 31-736 partner limits assumed, species assumed): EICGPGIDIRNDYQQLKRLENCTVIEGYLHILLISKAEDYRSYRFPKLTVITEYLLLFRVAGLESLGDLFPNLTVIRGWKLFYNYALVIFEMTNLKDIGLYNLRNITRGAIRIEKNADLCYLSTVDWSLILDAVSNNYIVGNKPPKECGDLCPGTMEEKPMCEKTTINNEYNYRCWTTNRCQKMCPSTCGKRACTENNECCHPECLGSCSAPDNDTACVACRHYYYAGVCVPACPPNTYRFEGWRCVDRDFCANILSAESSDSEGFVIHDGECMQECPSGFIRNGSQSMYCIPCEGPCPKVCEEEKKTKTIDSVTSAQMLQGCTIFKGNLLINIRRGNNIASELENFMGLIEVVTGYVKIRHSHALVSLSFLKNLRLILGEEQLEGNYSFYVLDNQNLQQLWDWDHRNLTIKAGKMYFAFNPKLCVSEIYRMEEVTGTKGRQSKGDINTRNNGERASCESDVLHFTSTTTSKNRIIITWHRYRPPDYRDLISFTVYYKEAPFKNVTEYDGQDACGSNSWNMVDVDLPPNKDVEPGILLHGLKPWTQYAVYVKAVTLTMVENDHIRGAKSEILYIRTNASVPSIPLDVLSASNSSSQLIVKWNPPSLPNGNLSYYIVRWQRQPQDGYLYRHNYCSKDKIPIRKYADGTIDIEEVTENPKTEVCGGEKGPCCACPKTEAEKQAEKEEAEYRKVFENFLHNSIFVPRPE
# T2 sequence (P06213 763-1382 limits assumed): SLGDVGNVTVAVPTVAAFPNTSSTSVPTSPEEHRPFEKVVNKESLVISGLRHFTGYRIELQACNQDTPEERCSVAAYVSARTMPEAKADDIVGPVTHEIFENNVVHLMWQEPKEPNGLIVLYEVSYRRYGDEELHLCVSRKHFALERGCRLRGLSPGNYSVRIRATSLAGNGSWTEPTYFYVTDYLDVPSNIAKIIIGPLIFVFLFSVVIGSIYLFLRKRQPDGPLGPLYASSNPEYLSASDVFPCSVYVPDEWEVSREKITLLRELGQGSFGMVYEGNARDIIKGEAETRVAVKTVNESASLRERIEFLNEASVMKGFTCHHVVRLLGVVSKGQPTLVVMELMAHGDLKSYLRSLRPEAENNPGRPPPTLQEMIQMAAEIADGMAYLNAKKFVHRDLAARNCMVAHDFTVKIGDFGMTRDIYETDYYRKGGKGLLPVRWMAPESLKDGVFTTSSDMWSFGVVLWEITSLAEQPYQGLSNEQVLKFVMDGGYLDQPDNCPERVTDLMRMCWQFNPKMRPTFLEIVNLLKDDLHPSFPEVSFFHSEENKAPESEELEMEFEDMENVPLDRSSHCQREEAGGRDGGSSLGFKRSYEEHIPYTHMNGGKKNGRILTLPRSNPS
# T2 sequence (P06213 28-758 partner limits assumed): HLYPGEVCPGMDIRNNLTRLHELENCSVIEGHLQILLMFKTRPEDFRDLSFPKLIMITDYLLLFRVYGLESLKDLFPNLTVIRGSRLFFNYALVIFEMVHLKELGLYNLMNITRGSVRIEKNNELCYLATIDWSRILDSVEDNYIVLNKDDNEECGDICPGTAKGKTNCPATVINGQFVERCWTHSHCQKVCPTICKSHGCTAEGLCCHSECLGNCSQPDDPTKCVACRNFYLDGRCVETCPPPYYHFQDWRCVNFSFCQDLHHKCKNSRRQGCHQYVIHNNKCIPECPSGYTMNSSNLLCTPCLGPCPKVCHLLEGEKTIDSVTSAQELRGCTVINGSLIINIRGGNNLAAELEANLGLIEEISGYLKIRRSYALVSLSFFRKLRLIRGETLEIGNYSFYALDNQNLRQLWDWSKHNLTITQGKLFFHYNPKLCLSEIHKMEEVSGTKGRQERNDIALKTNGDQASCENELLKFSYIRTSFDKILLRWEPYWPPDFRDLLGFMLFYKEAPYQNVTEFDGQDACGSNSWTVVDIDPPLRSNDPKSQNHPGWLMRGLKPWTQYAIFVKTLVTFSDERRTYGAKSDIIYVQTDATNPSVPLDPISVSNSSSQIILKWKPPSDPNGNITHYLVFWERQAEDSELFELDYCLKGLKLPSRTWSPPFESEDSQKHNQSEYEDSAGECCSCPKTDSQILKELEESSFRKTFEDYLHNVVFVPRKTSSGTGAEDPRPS
structure (smiles),measurement,setting,value
"COc1cc2ncnc(Nc3cccc(Br)c3)c2cc1OC [A1, 4-(3-Bromophenylamino)-6,7-dimethoxyquinazoline]",Solubility After 24 Hrs.,[1]; 1.0 N HCl,Insoluble/Yellow
same,Solubility After 24 Hrs.,[1]; Benzyl Alcohol,Soluble
same,Solubility After 24 Hrs.,[1]; Conc. NaOH,Insoluble
same,Solubility After 24 Hrs.,[1]; Distilled H2O,Insoluble
same,Solubility After 24 Hrs.,"[1]; EtOH/Poly-80 50:50, [Drug] 10 mg/mL",Slightly Soluble
same,Solubility After 24 Hrs.,[1]; Ethanol,Partially Soluble
same,Solubility After 24 Hrs.,[1]; Isopropyl Myristate,Insoluble/Cloudy
same,Solubility After 24 Hrs.,[1]; Oleic Acid,Insoluble/Yellow/Cloudy
same,Solubility After 24 Hrs.,[1]; PEG-300,Soluble
same,Solubility After 24 Hrs.,"[1]; Polysorbate-80, [Drug] 10 mg/mL",Slightly Soluble
same,Solubility After 24 Hrs.,[1]; Propylene Carbonate,Soluble/80C/10 min.
same,Solubility After 24 Hrs.,[1]; Propylene Glycol,Slightly Soluble/Clear/
same,Solubility After 24 Hrs.,[1]; Triacetin,Partially Soluble
same,growth of cell lines driven by the EGF-R/Her family of RTK (in words),A431,preferentially inhibited
same,IC50,"A431; Homo sapiens, A-431, 96 h",1.6 µM
same,IC50,3T3-EGFR cells,0.03 µM
same,inhibition of PDGF-bR-dependent cell growth (in words),C6,did not inhibit
same,IC50,"C6; Rattus norvegicus, C6, 96 h, RTK PDGF-bR, 4 day incubation",> 100 µM
same,activity against insulin-like growth factor-1 receptor (in words),IGF-1R,little or no activity
same,"inhibition of receptor phosphorylation, IGF-1R",IGF-1R; concentrations up to 100 μM,not inhibited
same,IC50,"IGF-1R; ligand IGF-1, 2 hr pretreatment",> 100 µM
same,"inhibition of receptor phosphorylation, IR",IR; concentrations up to 100 μM,not inhibited
same,IC50,"IR; ligand Insulin, 2 hr pretreatment",> 100 µM
same,Not Soluble at,"[2]; Benzyl Alcohol, NF",4.77 % w/w
same,Soluble at,"[2]; Benzyl Alcohol, NF",3.60 % w/w
same,Not Soluble at,"[2]; Benzyl Benzoate, USP (printed Betizyl Berizoate)",0.85 % w/w
same,Not Soluble at,[2]; Caprylic/Capric Triglyceride (Miglyol 812),0.84 % w/w
same,Not Soluble at,"[2]; Dehydrated Alcohol, USP",0.98 % w/w
same,Soluble at,"[2]; Dehydrated Alcohol, USP",0.76 % w/w
same,compatibility / solubility,[2]; Diethyl Sebacate,not compatible (yellow)
same,Not Soluble at,[2]; Diisopropyl Adipate,0.66 % w/w
same,Not Soluble at,[2]; Dimethyl isosorbide,0.97 % w/w
same,Not Soluble at,[2]; Ethoxydiglycol (Transcutol),3.74 % w/w
same,Soluble at,[2]; Ethoxydiglycol (Transcutol),2.41 % w/w
same,Not Soluble at,[2]; Finsolve TN (Finetex),1.27 % w/w
same,Not Soluble at,[2]; Hexylene Glycol,2.05 % w/w
same,Soluble at,[2]; Hexylene Glycol,0.98 % w/w
same,Not Soluble at,"[2]; Isopropyl Alcohol, 99%",1.25 % w/w
same,Not Soluble at,[2]; Isotearyl Alcohol,0.99 % w/w
same,Soluble at,[2]; Laureth 4,4.10 % w/w
same,Not Soluble at,"[2]; Octyldodecanol, NF",0.68 % w/w
same,Not Soluble at,"[2]; Oleic Acid, NF",1.00 % w/w
same,Not Soluble at,"[2]; Polyethylene Glycol 300, USP",2.10 % w/w
same,Soluble at,"[2]; Polyethylene Glycol 300, USP",1.00 % w/w
same,Not Soluble at,"[2]; Polyethylene Glycol 400, USP",2.44 % w/w
same,Soluble at,"[2]; Polyethylene Glycol 400, USP",1.76 % w/w
same,Not Soluble at,"[2]; Polysorbate 20, NF",0.99 % w/w
same,Not Soluble at,"[2]; Propylene Carbonate, NF",1.46 % w/w
same,Soluble at,"[2]; Propylene Carbonate, NF",0.98 % w/w
same,Not Soluble at,"[2]; Propylene Glycol, USP",0.59 % w/w
same,Not Soluble at,[2]; Triacetin USP,0.96 % w/w
same,solubility in nonirritant solvents (in words),[2]; among anticancer compounds,relative high solubility in nonirritant solvents
same,skin penetration (in words),in vitro,"penetrated human cadaver skin, reaching biologically effective concentrations in the epidermis"
same,concentration at 24 h,"in vitro; human, topical or ocular, concentration in the epidermis after 24 hours",141 to 355 µM
same,IC50,[3],0.075 µM

# Source: US6004967A, “Psoriasis treatment with quinazoline compounds” (priority 1997, dated 1999)
